How the values were obtained:
[1] = system: cotton aphid (Aphis gossypii); experiment: Insecticidal test for cotton aphid in foliar spray assay; format: in vivo; conditions: for pest or weed control at 50 ppm / pest or weed control at 200 ppm: Aphis gossypii, 72 h, foliar spray on squash, 3 days, Corrected % Control (Abbott), Table 1; for pest or weed control at 50 ppm: read-out: CA 50: % control at 50 ppm against cotton aphid in foliar spray tests; for pest or weed control at 200 ppm: read-out: CA 200: % control at 200 ppm against cotton aphid in foliar spray tests; for CA 0.78: % Control at ppm against cotton aphid (foliar spray): 0.78 ppm; for CA 0.78: % Control at ppm against cotton aphid (foliar spray) / CA 3.13: % Control at ppm against cotton aphid (foliar spray) / CA 12.5: % Control at ppm against cotton aphid (foliar spray) / CA 50: % Control at ppm against cotton aphid (foliar spray): rundown assay, Table 2; for CA 3.13: % Control at ppm against cotton aphid (foliar spray): 3.13 ppm; for CA 12.5: % Control at ppm against cotton aphid (foliar spray): 12.5 ppm; for pest or weed control at 50 ppm / CA 50: % Control at ppm against cotton aphid (foliar spray): 50 ppm
Protocol: Insecticidal Test for Cotton Aphid (Aphis gossypii) in Foliar Spray Assay Squash with fully expanded cotyledon leaves were trimmed to one cotyledon per plant and infested with cotton aphid (wingless adult and nymph) 1 day prior to chemical application. Each plant was examined before chemical application to ensure proper infestation (ca. 30-70 aphids per plant). Compounds (2 mg) were dissolved in 2 ml of acetone:methanol (1:1) solvent, forming stock solutions of 1000 ppm. The stock solutions were diluted 5× with 0.025% Tween 20 in H2O to obtain the highest test solution at 200 ppm. Lower test concentrations (50, 12.5, 3.13 and 0.78 ppm) were prepared by making sequential 4× dilutions from the 200 ppm solution with a diluent consisting 80 parts of 0.025% Tween 20 in H2O and 20 parts of acetone:methanol (1:1). A hand-held Devilbiss sprayer was used to apply the spray solutions until runoff to both sides of the squash cotyledon leaves. Four plants (4 replications) were used for each concentration of each compound. Reference plants (solvent check) were sprayed with the diluent only. Treated plants were held in a holding room for 3 days at approximately 23° C. and 40% RH before the number of live aphids on each plant was recorded. Insecticidal activity was measured by Corrected % Control using Abbott's correction formula: Corrected % Control=100*(X−Y)/X where • X=No. of live aphids on solvent check plants • Y=No. of live aphids on treated plants Insecticidal Test for Green Peach Aphid (Myzus persicae) in Foliar Spray Assay

[2] = system: green peach aphid (Myzus persicae); experiment: Insecticidal test for green peach aphid in foliar spray assay; format: in vivo; parameters: key to GPA 200: % control at 200 ppm against green peach aphid in foliar spray tests / GPA 50: % control at 50 ppm against green peach aphid in foliar spray tests: A: 90-100; B: 80-89; C: 70-79; D: 60-69; E: 50-59; F: Less than 50; G: Inactive; H: Not tested; conditions: foliar spray on cabbage seedlings, 3 days, Corrected % Control (Abbott); for pest or weed control at 50 ppm: Myzus persicae, 72 h, read-out: GPA 50: % control at 50 ppm against green peach aphid in foliar spray tests
Protocol: where • X=No. of live aphids on solvent check plants • Y=No. of live aphids on treated plants Insecticidal Test for Green Peach Aphid (Myzus persicae) in Foliar Spray Assay Cabbage seedlings grown in 3-inch pots, with 2-3 small (3-5 cm) true leaves, were used as test substrate. The seedlings were infested with 20-50 green peach aphids (wingless adult and nymph) 2-3 days prior to chemical application. Four seedlings were used for each treatment. Compounds (2 mg) were dissolved in 2 ml of acetone:methanol (1:1) solvent, forming stock solutions of 1000 ppm. The stock solutions were diluted 5× with 0.025% Tween 20 in H2O to obtain the highest test solution at 200 ppm. A lower test concentration of 50 ppm was prepared by making a 4× dilution from the 200 ppm solution with a diluent consisting 80 parts of 0.025% Tween 20 in H2O and 20 parts of acetone: methanol (1:1). A hand-held Devilbiss sprayer was used for spraying a solution to both sides of cabbage leaves until runoff. Reference plants (solvent check) were sprayed with the diluent only. Treated plants were held in a holding room for three days at approximately 23° C. and 40% RH prior to grading. Evaluation was conducted by counting the number of live aphids per plant under a microscope. Insecticidal activity was measured by using Abbott's correction formula: Corrected % Control=100*(X−Y)/X where • X=No. of live aphids on solvent check plants • Y=No. of live aphids on treated plants The Corrected % Control values from the above assays are given in Table 1.

Row | melting point | SMILES | pest or weed control at 50 ppm [1] | pest or weed control at 200 ppm [1] | GPA 50: % control at 50 ppm against green peach aphid in foliar spray tests [2] | CA 0.78: % Control at ppm against cotton aphid (foliar spray) [1] | CA 3.13: % Control at ppm against cotton aphid (foliar spray) [1] | CA 12.5: % Control at ppm against cotton aphid (foliar spray) [1] | CA 50: % Control at ppm against cotton aphid (foliar spray) [1] | GPA 200: % control at 200 ppm against green peach aphid in foliar spray tests [2] | pest or weed control at 50 ppm [2]
1 |  | CS(=O)(Cc1cnc(Cl)c(Cl)c1)=NC#N (centres unmarked) [Compound 1, [(5,6-dichloropyridin-3-yl)methyl](methyl)-oxido λ^4-sulfanylidenecyanamide] | 90 to 100% | 90 to 100% | G |  |  |  |  |  | 
2 |  | CS(=O)(Cc1cnc(Cl)c(F)c1)=NC#N (centres unmarked) [Compound 2, [(5-fluroro-6-chloropyridin-3-yl)methyl](methyl)-oxido-λ^4-sulfanylidenecyanamide] | 90 to 100% | 90 to 100% |  | A (90-100) | A (90-100) | A (90-100) | A (90-100) | B (80-89) | 50 to 59%
3 |  | CC(c1cnc(Cl)c(F)c1)S(C)(=O)=NC#N (centres unmarked) [Compound 3, [1-(5-fluoro-6-chloropyridin-3-yl)ethyl](methyl)-oxido-λ^4-sulfanylidenecyanamid] | 90 to 100% | 90 to 100% |  | A (90-100) | A (90-100) | A (90-100) | A (90-100) | A (90-100) | 80 to 89%
4 |  | CSc1ncc(C(C)S(C)(=O)=NC#N)cc1F (centres unmarked) [Compound 4, [1-(5-fluoro-6-methylthioyridin-3-yl)ethyl]-(methyl)-oxido-λ^4-sulfanylidenecyanamide] | 80 to 89% | 90 to 100% | G |  |  |  |  | G | 
5 | 123 to 125 °C | COc1cc(CS(C)(=O)=NC#N)cnc1Cl (centres unmarked) [Compound 5, [(5-methoxy-6-chloropyridin-3-yl)methyl](methyl)-oxido-λ^4-sulfanylidenecyanamide] | 70 to 79% | 90 to 100% | G |  |  |  |  | G | 
6 |  | COc1cc(C(C)S(C)(=O)=NC#N)cnc1Cl (centres unmarked) [Compound 6, [1-(5-methoxy-6-chloropyridin-3-yl)ethyl](methyl)-oxido-λ^4-sulfanylidenecyanamide] | 60 to 69% | 90 to 100% | G |  |  |  |  | G | 
7 |  | CS(=O)(Cc1cnc(Cl)c(Br)c1)=NC#N (centres unmarked) [Compound 7, [(5-bromo-6-chloropyridin-3-yl)methyl](methyl)-oxido-λ^4-sulfanylidenecyanamide] | 90 to 100% | 90 to 100% | G |  |  |  |  | G | 
8 |  | CC(c1cnc(Cl)c(Br)c1)S(C)(=O)=NC#N (centres unmarked) [Compound 8, [1-(5-bromo-6-chloropyridin-3-yl)ethyl](methyl)-oxido-λ^4-sulfanylidenecyanamide] | 90 to 100% | 90 to 100% | G | E (50-59) | A (90-100) | A (90-100) | A (90-100) | B (80-89) | 
9 |  | CS(=O)(Cc1cnc(Cl)cc1Cl)=NC#N (centres unmarked) [Compound 9, [(4,6-dichloropyridin-3-yl)methyl](methyl)-oxido λ^4-sulfanylidenecyanamide] | 90 to 100% | 90 to 100% | G |  |  |  |  |  | 

— patent US7709649B2, “Multi-substituted pyridyl sulfoximines and their use as insecticides” (Dow AgroSciences LLC, priority 2006, dated 2010)
